Converted amounts (≈) assume the structure as drawn. Blank lines part the entries; values can stand above or below the compound they belong to.
Columns and labels:
Plasmodium falciparum [1] = assay: Antiplasmodial activity against Plasmodium falciparum 3D7 at asexual erythrocytic stage infected in human erythrocytes assessed as parasite growth inhibition incubated for 42 hrs by [3H]-hypoxanthine incorporation assay; type: functional, organism-based; settings: 3D7, Erythrocyte
Plasmodium falciparum [2] = assay: Antimalarial activity against Plasmodium falciparum 3D7 assessed as inhibition of parasitemia incubated for 72 hrs by fluorescence based assay; type: functional, organism-based; settings: 3D7, 72 h
Plasmodium falciparum [3] = assay: Antimalarial activity against Plasmodium falciparum 3D7 assessed as inhibition of parasite proliferation; type: functional, organism-based
Plasmodium falciparum [4] = assay: Antimalarial activity against Plasmodium falciparum […] incubated for 48 hrs; type: functional, organism-based
Plasmodium falciparum [5] = assay: Antimalarial activity against Plasmodium falciparum 3D7 infected in erythrocytes assessed as parasite growth inhibition incubated for 42 hrs by [3H]-hypoxanthine incorporation assay; type: functional, organism-based; settings: 3D7, Erythrocyte
Plasmodium falciparum [6] = assay: Antiplasmodial activity against CQ-sensitive Plasmodium falciparum NF54; type: functional, organism-based
[7] = Cytotoxicity against African green monkey Vero cells; type: toxicity, cell-based; settings: chlorocebus sabaeus
Plasmodium falciparum [8] = assay: Antiplasmodial activity against Plasmodium falciparum K1 at asexual stage assessed as parasite growth inhibition; type: functional, organism-based
Plasmodium falciparum [9] = assay: Antiplasmodial activity against CQ-sensitive Plasmodium falciparum NF54 at asexual stage assessed as parasite growth inhibition; type: functional, organism-based
Plasmodium falciparum [10] = assay: Antiplasmodial activity against CQ-sensitive Plasmodium falciparum F32 Tanzania assessed as parasite growth inhibition incubated for 48 hrs; type: functional, organism-based
Plasmodium falciparum [11] = assay: Antimalarial activity against CQ-sensitive Plasmodium falciparum 3D7 infected in human O+ erythrocytes assessed as parasite growth inhibition incubated for 48 hrs by SYBR Green I staining based analysis; type: functional, organism-based; settings: 3D7, Erythrocyte
Plasmodium falciparum [12] = assay: Antimalarial activity against CQ-resistant Plasmodium falciparum K1 infected in human O+ erythrocytes assessed as parasite growth inhibition incubated for 48 hrs by SYBR Green I staining based analysis; type: functional, organism-based; settings: K1, Erythrocyte
Plasmodium falciparum [13] = assay: Antimalarial activity against Plasmodium falciparum W2 assessed as parasite growth inhibition; type: functional, organism-based

Structure (SMILES): NS(=O)(=O)c1ccc(-n2cc(COc3ccccc3)nn2)cc1
IC50 (Plasmodium falciparum [1]): 15 µg/mL (≈ 45.4 µM)

IC50 (Plasmodium falciparum [2]): 11.7 µM
Structure (SMILES): CCOCc1cn(-c2ccc(Cl)cc2)nn1

IC50 (Plasmodium falciparum [2]): 27.5 µM
Structure (SMILES): O=C(OCc1cnn(-c2ccccc2)n1)c1ccccc1

Structure (SMILES): CCCCCc1cn(CCNC(=O)[C@H](O)C(C)(C)CO)nn1
IC50 (Plasmodium falciparum [3]): 8.5 µM

Structure (SMILES): CCCCn1cc(CCNC(=O)[C@H](O)C(C)(C)CO)nn1
IC50 (Plasmodium falciparum [3]): 3.3 µM

IC50 (Plasmodium falciparum [4]): 1.5 µg/mL (≈ 3.11 µM)
Structure (SMILES): Cc1ccc(-c2cc(-c3c(C)nn(-c4ccccc4)c3-n3cncn3)n3c(n2)nc2ccccc23)cc1

IC50 (Plasmodium falciparum [4]): 1.45 µg/mL (≈ 2.91 µM)
Structure (SMILES): COc1ccc(-c2cc(-c3c(C)nn(-c4ccccc4)c3-n3cncn3)n3c(n2)nc2ccccc23)cc1

IC50 (Plasmodium falciparum [4]): 0.054 µg/mL (≈ 0.111 µM)
Structure (SMILES): Cc1nn(-c2ccccc2)c(-n2cncn2)c1-c1cc(-c2ccc(O)cc2)nc2nc3ccccc3n12

IC50 (Plasmodium falciparum [4]): 1.45 µg/mL (≈ 3.09 µM)
Structure (SMILES): Cc1nn(-c2ccccc2)c(-n2cncn2)c1-c1cc(-c2ccccc2)nc2nc3ccccc3n12

Structure (SMILES): COc1ccc2cc3[n+](cc2c1OCc1cn(-c2ccc(S(=O)(=O)N4CCOCC4)cc2)nn1)CCc1cc2c(cc1-3)OCO2.[Cl-]
IC50 (Plasmodium falciparum [5]): 0.5 µg/mL

Structure (SMILES): COc1ccc2cc3[n+](cc2c1OCc1cn(-c2ccc(S(=O)(=O)Nc4ccc(Cl)cc4)cc2)nn1)CCc1cc2c(cc1-3)OCO2.[Cl-]
IC50 (Plasmodium falciparum [5]): 0.1 µg/mL

Structure (SMILES): COc1ccc2cc3[n+](cc2c1OCc1cn(-c2ccc(S(=O)(=O)N4CCN(C)CC4)cc2)nn1)CCc1cc2c(cc1-3)OCO2.[Cl-]
IC50 (Plasmodium falciparum [5]): 0.8 µg/mL

Structure (SMILES): COc1ccc2cc3[n+](cc2c1OCc1cn(-c2ccc(S(=O)(=O)N4CCCCC4)cc2)nn1)CCc1cc2c(cc1-3)OCO2.[Cl-]
IC50 (Plasmodium falciparum [5]): 0.8 µg/mL

IC50 (Plasmodium falciparum [2]): 12.8 µM
Structure (SMILES): CCOC(=O)c1cn(-c2ccccc2)nn1

IC50 (Plasmodium falciparum [4]): 1.32 µg/mL (≈ 5.21 µM)
Structure (SMILES): Cc1nn(-c2ccccc2)c(-n2cncn2)c1C=O

IC50 (Plasmodium falciparum [6]): > 10 µM
Structure (SMILES): CC(=O)c1ccc(-n2cc(COC(=O)[C@@]3(C)CC[C@]4(C)CC[C@]5(C)C(=CC(=O)[C@@H]6[C@@]7(C)CC[C@H](O)C(C)(C)[C@@H]7CC[C@]65C)[C@@H]4C3)nn2)cc1
CC50 [7]: 226 µM

Structure (SMILES): COC(=O)C1=C(Cn2cc(CNc3ccnc4cc(Cl)ccc34)nn2)NC(=O)NC1c1ccc(OC)cc1 (stereo unspecified)
IC50 (Plasmodium falciparum [8]): 0.567 µM | IC50 (Plasmodium falciparum [9]): 0.245 µM

Structure (SMILES): CCCn1cc(CCNC(=O)[C@H](O)C(C)(C)CO)nn1
IC50 (Plasmodium falciparum [3]): 5.3 µM

IC50 (Plasmodium falciparum [4]): 0.83 µg/mL (≈ 1.75 µM)
Structure (SMILES): Cc1nn(-c2ccccc2)c(-n2cncn2)c1-c1cc(-c2cccs2)nc2nc3ccccc3n12

Structure (SMILES): CCCCCn1nncc1CCNC(=O)[C@H](O)C(C)(C)CO
IC50 (Plasmodium falciparum [3]): > 100 µM

Structure (SMILES): NS(=O)(=O)c1ccc(-n2cc(COc3ccc(F)cc3)nn2)cc1
IC50 (Plasmodium falciparum [1]): 15.4 µg/mL (≈ 44.2 µM)

IC50 (Plasmodium falciparum [4]): 0.092 µg/mL (≈ 0.201 µM)
Structure (SMILES): Cc1nn(-c2ccccc2)c(-n2cncn2)c1-c1cc(-c2cc[nH]c2)nc2nc3ccccc3n12

Structure (SMILES): NC1=C(n2cc(COC3=CC(=O)c4ccccc4C3=O)nn2)C(=O)c2ccccc2C1=O
IC50 (Plasmodium falciparum [10]): > 20 µM

IC50 (Plasmodium falciparum [6]): 8.82 µM
Structure (SMILES): CC1(C)[C@@H](O)CC[C@]2(C)[C@H]3C(=O)C=C4[C@@H]5C[C@@](C)(C(=O)OCc6cn(-c7ccc(F)cc7)nn6)CC[C@]5(C)CC[C@@]4(C)[C@]3(C)CC[C@@H]12
CC50 [7]: 226 µM

Structure (SMILES): Clc1cccc(-n2cc(-c3cncc4ccccc34)nn2)c1
IC50 (Plasmodium falciparum [11]): 365 µM | IC50 (Plasmodium falciparum [12]): 95.8 µM

IC50 (Plasmodium falciparum [6]): 1.14 µM
Structure (SMILES): CC1(C)[C@@H](O)CC[C@]2(C)[C@H]3C(=O)C=C4[C@@H]5C[C@@](C)(C(=O)OCc6cn(-c7ccc(C#N)cc7)nn6)CC[C@]5(C)CC[C@@]4(C)[C@]3(C)CC[C@@H]12
CC50 [7]: 190 µM

IC50 (Plasmodium falciparum [2]): 9.29 µM
Structure (SMILES): Clc1ccc(N/N=C/c2cnn(-c3ccccc3)n2)cc1

Structure (SMILES): CCCCn1cc(COC2=CC(=O)c3ccccc3C2=O)nn1
IC50 (Plasmodium falciparum [10]): 11.2 µM

Structure (SMILES): COC(=O)c1ccccc1-c1ccc(Cn2cc(-c3cncc4ccccc34)nn2)cc1
IC50 (Plasmodium falciparum [11]): 35.8 µM | IC50 (Plasmodium falciparum [12]): 52 µM

Structure (SMILES): C=C[C@H]1CN2CC[C@H]1C[C@H]2[C@H](c1ccnc2ccccc12)n1cc(-c2ccccc2)nn1
IC50 (Plasmodium falciparum [13]): 4.65 µM

Structure (SMILES): C=C[C@H]1CN2CC[C@H]1C[C@H]2[C@H](c1ccnc2ccccc12)n1cc(C(C)(C)N)nn1
IC50 (Plasmodium falciparum [13]): 4.62 µM

Structure (SMILES): Cc1ccc(OCc2cn(-c3ccc(S(N)(=O)=O)cc3)nn2)cc1
IC50 (Plasmodium falciparum [1]): > 50 µg/mL

Structure (SMILES): C=C[C@H]1CN2CC[C@H]1C[C@H]2[C@H](c1ccnc2ccccc12)n1cc(CO)nn1
IC50 (Plasmodium falciparum [13]): 6.82 µM

Structure (SMILES): O=C1C=C(OCc2cn(-c3ccc(S)cc3)nn2)C(=O)c2ccccc21
IC50 (Plasmodium falciparum [10]): > 20 µM

Structure (SMILES): C=C[C@H]1CN2CC[C@H]1C[C@H]2[C@H](c1ccnc2ccccc12)n1cc(C(C)(C)O)nn1
IC50 (Plasmodium falciparum [13]): 2.59 µM

Structure (SMILES): Clc1ccc(-n2cc(-c3cncc4ccccc34)nn2)cc1
IC50 (Plasmodium falciparum [11]): 36.9 µM | IC50 (Plasmodium falciparum [12]): 4.55 µM

Structure (SMILES): Clc1ccc2c(-c3cn(CC(c4ccccc4)c4ccccc4)nn3)ccnc2c1
IC50 (Plasmodium falciparum [11]): 91.8 µM | IC50 (Plasmodium falciparum [12]): 72 µM

Structure (SMILES): O=C1C=C(OCc2cn(C3=CC(=O)c4ccccc4C3=O)nn2)C(=O)c2ccccc21
IC50 (Plasmodium falciparum [10]): 1.9 µM

Structure (SMILES): COc1ccc2cc3[n+](cc2c1OCc1cn(-c2ccc(S(=O)(=O)Nc4ccc([N+](=O)[O-])cc4)cc2)nn1)CCc1cc2c(cc1-3)OCO2.Cl
IC50 (Plasmodium falciparum [5]): 20 µg/mL

Structure (SMILES): COc1ccc2cc3[n+](cc2c1OCc1cn(-c2ccc(S(=O)(=O)N4CCN(c5ccccn5)CC4)cc2)nn1)CCc1cc2c(cc1-3)OCO2.[Cl-]
IC50 (Plasmodium falciparum [5]): 1 µg/mL

Structure (SMILES): CCCCCCCCCCCn1cc(COC2=CC(=O)c3ccccc3C2=O)nn1
IC50 (Plasmodium falciparum [10]): 17 µM

IC50 (Plasmodium falciparum [6]): 3.5 µM
Structure (SMILES): CC(=O)c1cccc(-n2cc(COC(=O)[C@@]3(C)CC[C@]4(C)CC[C@]5(C)C(=CC(=O)[C@@H]6[C@@]7(C)CC[C@H](O)C(C)(C)[C@@H]7CC[C@]65C)[C@@H]4C3)nn2)c1
CC50 [7]: 213 µM

Structure (SMILES): COC(=O)C1=C(Cn2cc(CNc3ccnc4cc(Cl)ccc34)nn2)N(C)C(=O)NC1c1ccc(OC)cc1 (stereo unspecified)
IC50 (Plasmodium falciparum [8]): 0.422 µM | IC50 (Plasmodium falciparum [9]): 0.18 µM

Structure (SMILES): CC(C)(CO)[C@@H](O)C(=O)NCCc1cn(CCc2ccccc2)nn1
IC50 (Plasmodium falciparum [3]): 5.4 µM

Structure (SMILES): C=C[C@H]1CN2CC[C@H]1C[C@H]2[C@H](c1ccnc2ccccc12)n1cc(CCC)nn1
IC50 (Plasmodium falciparum [13]): 1.99 µM

Structure (SMILES): O=S(=O)(c1ccc(-n2cc(COc3ccccc3)nn2)cc1)N1CCCCC1
IC50 (Plasmodium falciparum [1]): > 50 µg/mL

IC50 (Plasmodium falciparum [6]): 0.47 µM
Structure (SMILES): CC1(C)[C@@H](O)CC[C@]2(C)[C@H]3C(=O)C=C4[C@@H]5C[C@@](C)(C(=O)OCc6cn(-c7ccc(O)cc7[N+](=O)[O-])nn6)CC[C@]5(C)CC[C@@]4(C)[C@]3(C)CC[C@@H]12
CC50 [7]: 253 µM

IC50 (Plasmodium falciparum [6]): 2.71 µM
Structure (SMILES): CC1(C)[C@@H](O)CC[C@]2(C)[C@H]3C(=O)C=C4[C@@H]5C[C@@](C)(C(=O)OCc6cn(-c7ccc([N+](=O)[O-])cc7)nn6)CC[C@]5(C)CC[C@@]4(C)[C@]3(C)CC[C@@H]12
CC50 [7]: 175 µM

IC50 (Plasmodium falciparum [6]): 0.48 µM
Structure (SMILES): CC1(C)[C@@H](O)CC[C@]2(C)[C@H]3C(=O)C=C4[C@@H]5C[C@@](C)(C(=O)OCc6cn(-c7ccc(Cl)cc7)nn6)CC[C@]5(C)CC[C@@]4(C)[C@]3(C)CC[C@@H]12
CC50 [7]: 391 µM

Structure (SMILES): Cc1cc(C)nc(NS(=O)(=O)c2ccc(-n3cc(COc4ccccc4)nn3)cc2)n1
IC50 (Plasmodium falciparum [1]): > 50 µg/mL

Structure (SMILES): COC(=O)C1=C(Cn2cc(CNc3ccnc4cc(Cl)ccc34)nn2)NC(=O)NC1c1ccc(F)cc1 (stereo unspecified)
IC50 (Plasmodium falciparum [8]): 0.551 µM | IC50 (Plasmodium falciparum [9]): 0.217 µM

Structure (SMILES): CC(C)(C)c1ccc(Cn2cc(-c3cccc4ccccc34)nn2)cc1
IC50 (Plasmodium falciparum [11]): 36.9 µM | IC50 (Plasmodium falciparum [12]): 42.2 µM

Structure (SMILES): CCCCCn1nncc1CNC(=O)[C@H](O)C(C)(C)CO
IC50 (Plasmodium falciparum [3]): 36 µM

Structure (SMILES): O=C1C=C(OCc2cn(-c3ccc(CO)cc3)nn2)C(=O)c2ccccc21
IC50 (Plasmodium falciparum [10]): 9.7 µM

IC50 (Plasmodium falciparum [6]): 4.03 µM
Structure (SMILES): Cc1ccc(-n2cc(COC(=O)[C@@]3(C)CC[C@]4(C)CC[C@]5(C)C(=CC(=O)[C@@H]6[C@@]7(C)CC[C@H](O)C(C)(C)[C@@H]7CC[C@]65C)[C@@H]4C3)nn2)cc1Cl
CC50 [7]: 377 µM

— ChEMBL document CHEMBL5512597, “Triazole hybrid compounds: A new frontier in malaria treatment” (Eur J Med Chem, 2023)
